Laboratory results published in patent US9393314B2, “Meloxicam eye drops and preparation method and use thereof” (KANGYA OF NINGXIA PHARMACEUTICALS CO., LTD., priority 2013, dated 2016).
Marks after values point to notes of the source that are not given here.

System: rabbit eyes (aqueous humor protein concentration)
Test: Rabbit eye anterior chamber puncture test
Type: in vivo
Method: Thirty-six rabbits without ocular abnormalities were taken and randomly divided into six groups, with six rabbits in each group. The groups are respectively saline group, medium control group, positive control group of diclofenac sodium, 0.025%, 0.05% and 0.1% meloxicam eye drops groups. Then 0.05 mL drug solution was dropped into the rabbit eyes for experiment. The eyes were forced to be closed for 10 seconds; 45 minutes later, under local anesthesia with 0.2 mL of 1% tetracaine drops, puncturing was performed with 41/2 needle from the edge of the limbus to take 0.2 mL of primary aqueous humor; 90 minutes later, puncturing was performed again to take the secondary aqueous humor. Those two batches of aqueous humor were diluted 2-fold and 50-fold respectively. Then 0.05 mL of distilled water, aqueous humor dilution and protein standard solution were taken, 3 mL Coomassie brilliant blue staining solution was added thereto respectively, after 10 minutes of reaction, their absorbance values at 595 nm were measured, and the protein content was calculated according to the following formula: [formula]

In the case of `O=C(O)Cc1ccccc1Nc1c(Cl)cccc1Cl` [Diclofenac sodium], the “Protein concentration in aqueous humor, Primary” value (0.05 ml/eye, puncture 45 minutes after dosing, x ± s, n 6) is reported as 0.52 ± 0.19 mg/mL, the “Protein concentration in aqueous humor, Secondary” value (0.05 ml/eye, second puncture 90 minutes later, x ± s, n 6) is reported as 18.05 ± 3.01**^ΔΔ mg/ml and the “inhibition of the increase in aqueous humor protein concentration caused by puncture of anterior chamber” value (vs saline and medium control groups) is reported as “significantly inhibit”.
